# Assay results from US20020010182A1, “Piperazine derivatives as tachykinin antagonists” (FUJISAWA PHARMACEUTICAL CO., LTD., priority 1995, published 2002).
# Structures can show the parent of a compound that is named as a salt.
# Target: T1, h-NK1 receptors (Homo sapiens, UniProt P25103)
# T1 construct: expressed in transfected cells; host or cells: CHO cells (permanent expression), crude cell membranes
# Experiment: Evaluation of NK1 antagonist transport efficiency to the central nervous system using a h-NK1 receptor binding assay
# Conditions: 5 min, brain extract of male SD rats 5 min after i.v. injection of test compound, CHO cell membranes expressing h-NK1, read-out: inhibition rate of 125I-BH-Substance P binding to h-NK1 receptors
# Method: A. Evaluation of NK1 Antagonist Transport Efficiency to the Cental Nervous System Using a h-NK1 Receptor Binding Assay
# (1) Administration of Test Compound and Extraction of the Compound From Brain
# Male SD rats were given an i.v. injection of a solution containing a test compound (1 mg/kg). 5 Min later the animals were anesthetized by ether, bled and perfused through the aorta ascendens with 20 ml of saline. The brain was rapidly removed, weighed and homogenized in 4 vol. ice-cold distilled water by using Polytoron (KINEMATICA). To extract the test compound, 500 μl of the homogenate, 100 μl of methanol, 500 μl of 0.1 N NaOH and 4 ml of ethyl acetate were mixed by shaking for 10 min at room temperature. The organic phase (2.5 ml) was recovered by centrifugation at 3,000 rpm for 10 min, dried and dissolved in dimethyl sulfoxide.
# (2) h-NK1 Receptor Binding Assay
# (a) Crude CHO Cell Membrane Preparation
# CHO cells permanently expressing h-NK1 receptors were harvested and homogenized with a Dounce homogenizer at 4° C. in a buffer (0.25 M sucrose, 25 mM Tris-HCl (pH 7.4), 10 mM MgCl2, 1 mM EDTA, 5 μg/ml p-APMSF). The homogenate was centrifuged (500×g, 10 min), and the pellet was resuspended in the same buffer, homogenized, and centrifuged. The two supernatants were combined and centrifuged (100,000×g, 1 hour). The crude cell membranes thus isolated were resuspended in a buffer (25 MM Tris-HCl (pH 7.4), 10 mM MgCl2, 1 mM EDTA, 5 μg/ml p-APMSF) and stored at −80° C. until use.
# (b) ^125I-BH-Substance P Binding to the Prepared Membrane
# Cell membranes (6 μg/ml) were incubated with ^125I-BH-Substance P (0.1 nM) with or without the extracted compounds in 0.25 ml of a medium (50 mM Tris-HCl (pH 7.4), 5 mM MnCl2, 20 μg/ml chymrostatin, 40 μg/ml bacitracin, 4 μg/ml leupeptin, 5 μg/ml p-APMSF, 200 μg/ml BSA) at 22° C. for 90 min. At the end of the incubation period, the contents were quickly filtered through a Blue Mat 11740 filter (pretreated with 0.1% polyethylenimine for 3 hours prior to use) by using SKATRON Cell Harvester. The filter was then washed with a washing buffer (50 mM Tris-HCl (pH 7.4), 5 mM MnCl2) . The radioactivity was counted by using an auto gamma counter (Packard RIASTAR 5420A). All data presented are specific binding defined as that displaceable by 3 μM unlabeled Substance P.
# T1 sequence (P25103 whole entry): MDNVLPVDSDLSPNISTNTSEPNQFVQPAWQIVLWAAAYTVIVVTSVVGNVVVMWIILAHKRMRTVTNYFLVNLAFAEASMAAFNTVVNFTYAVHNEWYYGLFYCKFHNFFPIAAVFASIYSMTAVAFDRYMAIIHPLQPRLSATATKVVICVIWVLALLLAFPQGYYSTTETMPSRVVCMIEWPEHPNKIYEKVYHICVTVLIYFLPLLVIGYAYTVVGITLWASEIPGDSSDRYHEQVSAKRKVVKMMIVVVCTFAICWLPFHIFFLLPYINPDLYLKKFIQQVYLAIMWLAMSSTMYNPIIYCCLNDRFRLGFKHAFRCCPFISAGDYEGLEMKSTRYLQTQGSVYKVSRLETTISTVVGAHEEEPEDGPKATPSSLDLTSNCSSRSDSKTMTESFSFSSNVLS
row,inhibition at 1 mg/kg,SMILES
1,> 80%,"Cl.Cn1cc(CN2CCN(C(=O)c3cc(C(F)(F)F)cc(C(F)(F)F)c3)[C@H](Cc3c[nH]c4ccccc34)C2)cn1 [Example 77, (2R)-1-[3,5-bis (trifluoromethyl)benzoyl]-2-(1H-indol-3-ylmethyl)-4-[(1-methyl-1H-pyrazol-4-yl)methyl]piperazine hydrochloride]"
2,> 80%,"Cl.Cl.O=C(c1cc(C(F)(F)F)cc(C(F)(F)F)c1)N1CCN(C/C=C/CN2CCOCC2)C[C@H]1Cc1c[nH]c2ccccc12 [Example 76, (2R)-1-[3,5-Bis(trifluoromethyl)benzoyl]-2-(1H-indol-3-ylmethyl)-4-[(E)-4-morpholino-2-butenyl]piperazine dihydrochloride]"
3,> 80%,"Cc1ccc(C[C@@H]2CN(CCCCN3CCOCC3)CCN2C(=O)c2cc(C(F)(F)F)cc(C(F)(F)F)c2)cc1C.Cl.Cl [Example 54, (2R)-1-[3,5-bis(trifluoromethyl)benzoyl]-2-(3,4-dimethylbenzyl)-4-(4-morpholinobutyl) piperazine dihydrochloride]"
4,> 80%,"O=C(c1cc(C(F)(F)F)cc(C(F)(F)F)c1)N1CCN(CCCCCN2CCOCC2)C[C@H]1Cc1c[nH]c2ccccc12 [Example 55, (2R)-1-[3,5-Bis(trifluoromethyl)benzoyl]-2-(1H-indol-3-ylmethyl)-4-(5-morpholinopentyl) piperazine dihydrochloride]"
5,> 80%,"Cc1ccc(C[C@@H]2CN(CCNCc3cccnc3)CCN2C(=O)c2cc(C(F)(F)F)cc(C(F)(F)F)c2)cc1C [Example 67-(5), (2R)-1-[3,5-Bis(trifluoromethyl)benzoyl]-2-(3,4-dimethylbenzyl)-4-[2-(3-pyridylmethylamino)ethyl]piperazine trihydrochloride]"
6,> 80%,"Cc1ccc(C[C@@H]2CN(CCCNCc3cccnc3)CCN2C(=O)c2cc(C(F)(F)F)cc(C(F)(F)F)c2)cc1C [82-(1), (2R)-1-[3,5-Bis(trifluoromethyl)benzoyl]-2-(3,4-dimethylbenzyl)-4-[N-(3-pyridylmethyl)-3-aminopropyl]piperazine trihydrochloride]"
7,> 80%,"O=C(c1cc(C(F)(F)F)cc(C(F)(F)F)c1)N1CCN(C/C=C\CN2CCOCC2)C[C@H]1Cc1c[nH]c2ccccc12 [Example 71, (2R) -1-[3,5-bis(trifluoromethyl)benzoyl]-2-(1H-indol-3-ylmethyl)-4-[(Z)-4-morpholino-2-butenyl]piperazine dihydrochloride]"
8,> 80%,"Cc1ccc(C[C@@H]2CN(CCCN3CCCOCC3)CCN2C(=O)c2cc(C(F)(F)F)cc(C(F)(F)F)c2)cc1C [Example 67-(7), (2R)-1-[3,5-Bis(trifluoromethyl)benzoyl]-2-(3,4-dimethylbenzyl)-4-(3-homomorpholinopropyl) piperazine dihydrochloride]"
9,> 80%,"Cc1ccc(C[C@@H]2CN(CCN3CCCOCC3)CCN2C(=O)c2cc(C(F)(F)F)cc(C(F)(F)F)c2)cc1C [Example 67-(6), (2R)-1-[3,5-Bis(trifluoromethyl)benzoyl]-2-(3,4-dimethylbenzyl)-4-(2-homomorpholinoethyl) piperazine dihydrochloride]"
10,> 80%,"O=C(c1cc(C(F)(F)F)cc(C(F)(F)F)c1)N1CCN(CC#CCN2CCOCC2)C[C@H]1Cc1ccc2ccccc2c1 [Example 35, (2R)-1-[3,5-bis(trifluoromethyl)benzoyl]-4-(4-morpholino-2-butynyl)-2-(2-naphthylmethyl) piperazine dihydrochloride]"
11,> 80%,"Cc1ccc(C[C@@H]2CN(Cc3cn(C)cn3)CCN2C(=O)c2cc(C(F)(F)F)cc(C(F)(F)F)c2)cc1C [52-(1), (2R)-1-[3,5-Bis(trifluoromethyl)benzoyl]-2-(3,4-dimethylbenzyl)-4-[(1-methyl-1H-imidazol-4-yl)methyl]piperazine dihydrochloride]"
12,> 80%,"O=C(c1cc(C(F)(F)F)cc(C(F)(F)F)c1)N1CCN(CCNCc2cccnc2)C[C@H]1Cc1ccc2ccccc2c1 [82-(7), (2R)-1-[3,5-Bis(trifluoromethyl)benzoyl]-2-(2-naphthylmethyl)-4-[N-(3-pyridylmethyl)-2-aminoethyl]piperazine trihydrochloride]"
13,> 80%,"O=C(c1cc(C(F)(F)F)cc(C(F)(F)F)c1)N1CCN(CCCN2CCSCC2)C[C@H]1Cc1ccc(Cl)c(Cl)c1 [Example 44-(4), (2R)-1-[3,5-Bis(trifluoromethyl)benzoyl]-2-(3,4-dichlorobenzyl) -4-(3-thiomorpholinopropyl) piperazine dihydrochloride]"
14,> 80%,"O=C(c1cc(C(F)(F)F)cc(C(F)(F)F)c1)N1CCN(CCCN2CCOCC2)C[C@H]1Cc1ccc(Cl)c(Cl)c1 [Example 44-(5), (2R)-1-[3,5-Bis(trifluoromethyl)benzoyl]-2-(3,4-dichlorobenzyl)-4-(3-morpholinopropyl) piperazine dihydrochloride]"
15,> 80%,"O=C(c1cc(C(F)(F)F)cc(C(F)(F)F)c1)N1CCN(CCN2CCSCC2)C[C@H]1Cc1ccc2ccccc2c1 [Example 44-(2), (2R)-1-[3,5-Bis(trifluoromethyl)benzoyl]-2-(2-naphthylmethyl)-4-(2-thiomorpholinoethyl) piperazine dihydrochloride]"
16,> 80%,"CC(=O)c1ccc(C(=O)N2CCN(C(=O)c3cc(C(F)(F)F)cc(C(F)(F)F)c3)[C@H](Cc3ccc(C)c(C)c3)C2)cc1 [Example 11, (2R)-4-(4-acetylbenzoyl)-1-[3,5-bis (trifluoromethyl)benzoyl]-2-(3,4-dimethylbenzyl)piperazine]"
17,> 80%,"Cc1ccc(C[C@@H]2CN(CCCN3C[C@@H](C)O[C@@H](C)C3)CCN2C(=O)c2cc(C(F)(F)F)cc(C(F)(F)F)c2)cc1C [Example 81, (2R)-1-[3,5-Bis(trifluoromethyl)benzoyl]-2-(3,4-dimethylbenzyl)-4-[3-(cis-2,6-dimethylmorpholino)propyl]piperazine dihydrochloride]"
18,> 80%,"O=C(c1cc(C(F)(F)F)cc(C(F)(F)F)c1)N1CCN(CCCN2CCC(c3ccccc3)CC2)C[C@H]1Cc1c[nH]c2ccccc12 [Example 46, (2R)-1-[3,5-bis(trifluoromethyl)benzoyl]-2-(1H-indol-3-ylmethyl)-4-[3-(4-phenylpiperidino)propyl]piperazine]"
19,> 80%,"Cc1ccc(C[C@@H]2CN(CCCNN3CCOCC3)CCN2C(=O)c2cc(C(F)(F)F)cc(C(F)(F)F)c2)cc1C [67-(4), (2R)-1-[3,5-Bis(trifluoromethyl)benzoyl]-2-(3,4-dimethylbenzyl)-4-[3-(morpholinoamino)propyl]piperazine dihydrochloride]"
20,> 80%,"O=C(c1cc(C(F)(F)F)cc(C(F)(F)F)c1)N1CCN(CCCCN2CCOCC2)C[C@H]1Cc1c[nH]c2ccccc12 [Example 73, (2R)-1-[3,5-bis(trifluoromethyl)benzoyl]-2-(1H-indol-3-ylmethyl)-4-(4-morpholinobutyl) piperazine dihydrochloride]"
21,> 80%,"O=C(c1cc(C(F)(F)F)cc(C(F)(F)F)c1)N1CCN(CCNN2CCOCC2)C[C@H]1Cc1ccc2ccccc2c1 [82-(8), (2R)-1-[3,5-Bis(trifluoromethyl)benzoyl]-2-(2-naphthylmethyl)-4-(N-morpholino-2-aminoethyl) piperazine dihydrochloride]"
22,> 80%,"O=C(c1cc(C(F)(F)F)cc(C(F)(F)F)c1)N1CCN(CCCN2CCc3sccc3C2)C[C@H]1Cc1c[nH]c2ccccc12 [Example 26, (2R)-1-[3,5-Bis(trifluoromethyl)benzoyl]-2-(1H-indol-3-ylmethyl)-4-[3-(4,5,6,7-tetrahydrothieno[3,2-c]pyridin-5-yl)propyl]piperazine]"
23,> 80%,"O=C(c1cc(C(F)(F)F)cc(C(F)(F)F)c1)N1CCN(CCCN2CCSC2)C[C@H]1Cc1c[nH]c2ccccc12 [Example 44-(7), (2R)-4-[3-(Thiazolidin-3-yl)propyl]-1-[3,5-bis (trifluoromethyl)benzoyl]-2-(1H-indol-3-ylmethyl) piperazine dihydrochloride]"

# Test system: not given
# Experiment: not given
# Conditions: not given
row,melting point,SMILES
1,122 to 136 °C,"Cl.Cn1cc(CN2CCN(C(=O)c3cc(C(F)(F)F)cc(C(F)(F)F)c3)[C@H](Cc3c[nH]c4ccccc34)C2)cn1 [Example 77, (2R)-1-[3,5-bis (trifluoromethyl)benzoyl]-2-(1H-indol-3-ylmethyl)-4-[(1-methyl-1H-pyrazol-4-yl)methyl]piperazine hydrochloride]"
2,123 to 128 °C,"Cl.Cl.O=C(c1cc(C(F)(F)F)cc(C(F)(F)F)c1)N1CCN(C/C=C/CN2CCOCC2)C[C@H]1Cc1c[nH]c2ccccc12 [Example 76, (2R)-1-[3,5-Bis(trifluoromethyl)benzoyl]-2-(1H-indol-3-ylmethyl)-4-[(E)-4-morpholino-2-butenyl]piperazine dihydrochloride]"
3,279 °C,"Cc1ccc(C[C@@H]2CN(CCCCN3CCOCC3)CCN2C(=O)c2cc(C(F)(F)F)cc(C(F)(F)F)c2)cc1C.Cl.Cl [Example 54, (2R)-1-[3,5-bis(trifluoromethyl)benzoyl]-2-(3,4-dimethylbenzyl)-4-(4-morpholinobutyl) piperazine dihydrochloride]"
